Like-named read-outs stand apart in the source and are kept apart here.

In general, inhibition of growth refers to the relative decrease from the control value, in per cent. A low value points to a response near the control.

Assay [1] concerns the target neural BZD (central BZD receptor). The assay can be described thus: Benzodiazepine receptor binding, neural (central) BZD. Further details: species or system rat. Here is the method: (§1) Crude membranes were prepared by homogenization of a rat forebrain sample in 20 ml of ice-cold 50 mM phosphate buffer (81 mM Na^+, 9 mMK^+) buffer with a Brinkman Polytron (setting 6, 15 sec). Buffer was added to obtain a final volume of 40 ml, and the homogenate was centrifuged in a Sorval SS-34 rotor at 39,000 g for 10 min at 0°-4° C. The resulting supernatant was decanted and discarded. The pellet was rehomogenized in ice-cold buffer, diluted, and centrifuged as before. The final pellet was resuspended in the assay buffer and held on ice for the receptor binding assay.
(§2) The inhibition constants (Ki) were calculated from the equation Ki=IC50/(I+L/Kd), where L is the radioligand concentration and Kd is the equilibrium dissociation constant for the radioligand. The IC50 was derived from the inhibition data by linear least squares regression of log (B/Bt-B) versus log I, where I is the test compound concentration, Bt is the total amount of radioligand specifically bound, and B is the amount of specific binding in the presence of a given concentration of the unlabeled test compound. The IC50 is the antilog of log I, when the expression log (B/Bt-B) equals zero.

Assay [2] has as its system rat pancreatic tumor cell line (AR42J). The assay can be described thus: Proliferation assay (growth curves), AR42J. It is filed as cell-based. The conditions noted are these: single application. Here is the method: (§3) The rat pancreatic tumor cell line (AR42J) was obtained from the American Type Culture Collection. The human colon adenocarcinoma (HT-29) and mouse melanoma (B16 F10) were obtained from the in-house tumor bank. The HT-29 cell line is used to generate the CX-1 tumor in nude mice. All cell lines were propagated in Dulbecco's modified Eagle's medium (DMEM) supplemented with 10% fetal bovine serum (FBS) and incubated in a humidified atmosphere of 90% air/ 10% CO2 at 37° C. These cell lines were maintained at Biomeasure, Inc. and were free of mycoplasma as judged by the indirect (Hoechst) method and the direct (Agar) method.
(§4) Growth Curves--The AR42J and HT-29 cells were plated at 5×10^4 cells per well and the B16 F10 was plated at 1×10^4 cells per well in 24 well tissue cult ure dishes in 1ml of DMEM supplemented with 10% FBS. […] The tissue culture plates were incubated at 37° C. in a humidified atomsphere of 90% air/10% CO2 for up to 8 days. At various times, single cell suspensions were obtained by washing the wells with DMEM, adding 0.5 ml of 0.05% trypsin--0.53 mM EDTA, incubating at 37° C. for 5 min., triturating, and adding 0.5ml of DMEM supplemented with 10% FBS to inhibit the trypsin. The total content of each well was added to Isoton and counted using a Coulter Counter model ZF attached to a Channelizer model 256 to ensure that a uniform single cell population was obtained.

The target of assay [3] is T1, peripheral BZD receptor (Rattus norvegicus, UniProt P16257).
T1 construct: Crude membranes were prepared by homogenization of a rat forebrain sample; from tissue; host or cells: rat forebrain crude membranes
The assay can be described thus: Receptor binding assay, peripheral BZD ([3H]RO5-4864 displacement, rat forebrain membranes). The note with it: read-out: BENZODIAZEPINE RECEPTOR BINDING, PERIPHERAL BZD. As for the experimental part: as §1
For the receptor binding assay, aliquots of the membrane preparation were incubated for 90 min at 4° C. in 50 mM phosphate buffer containing 0.5 nM [^3 H]RO-4864 and various concentrations of the unlabeled test compounds. The assay was terminated by rapid filtration through Whatman GF/B filters under vacuum. The filters were washed three times with 5-ml aliquots of ice-cold buffer, and the bound radioactivity trapped on the filters was counted by liquid scintillation spectrometry.
as §2

Assay [4] has as its system mouse melanoma (B16 F10). The assay can be described thus: Proliferation assay (growth curves), B16 F10. Format: cell-based. The note with it: 100 nM, single application. Here is the method: as §3, §4
The subject of assay [5] is human colon adenocarcinoma (HT-29). The assay can be described thus: Proliferation assay (growth curves), HT-29. Format: cell-based. Here is the method: as §3, §4
Setting [6] is: read-out: BENZODIAZEPINE RECEPTOR BINDING, NEURAL BZD.

With `CN1C(=O)CN=C(c2ccccc2)c2cc(Cl)ccc21` [DIAZEPAM, diazepam], the Ki in assay [1] (read-out: BENZ[…] BINDING, NEURAL BZD) was determined as 8.4 nM.
With `CN1C(=O)N(C(=O)c2ccc(F)cc2)N=C(c2ccccc2)c2ccccc21` [BIM-18154], the “inhibition of the growth of AR42J cells” value in assay [2] is listed as “did not inhibit”. Besides, the Ki in assay [3] was 0.68 nM. Besides, the “inhibiting the growth of B16 F10 cells” value in assay [4] is on record as “marginally active”. Besides, in assay [5] (HT-29, day 4, single application), the inhibition of growth is given as roughly 35%. The “inhibiting the growth of HT-29 cells” value in assay [5] (single application) is “active”.
Consider `O=C1CN=C(c2ccccc2Cl)c2cc([N+](=O)[O-])ccc2N1` [CLONAZEPAM, clonazepam, reference compound], for which the Ki came to 0.55 nM in assay [1] (setting [6]) and 10000 nM in assay [3].
Regarding `CN1C(=O)N(C(=O)c2ccc(F)c(F)c2)N=C(c2ccccc2)c2ccccc21` [BIM-18272], the Ki in assay [3] was found to be 3.1 nM.
Still for that read-out and setting: for `CN1C(=O)N(Cc2ccc(Cl)c(Cl)c2)N=C(c2ccccc2)c2ccccc21` [BIM-18269] the value was 53 nM; for `CN1C(=O)N(Cc2ccc(F)cc2)N=C(c2ccccc2)c2ccccc21` [BIM-18268], 12 nM.
As for `CN1C(=O)N(C(=O)c2ccc(Cl)c(Cl)c2)N=C(c2ccccc2)c2ccccc21` [BIM-18156], the Ki in assay [3] came to 1.68 nM.
With `CN1C(=O)CN=C(c2ccc(Cl)cc2)c2cc(Cl)ccc21` [RO5-4864], the Ki in assay [1] (setting [6]) was 7210 nM.

The values are drawn from patent US5091381A, “2H-1,3,4-benzotriazepin-2-ones” (Biomeasure, Inc., priority 1991, dated 1992).
